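Interpolation was linear, between the two tested concentrations surrounding the appropriate level; five concentrations were tested over 48 hours in 96-well plates. GI50 = concentration required for 50% inhibition of growth. The concentration for full growth arrest is given as TGI.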
Columns and labels:
Assay in all cases: inhibition of tumour cell growth, NCI panel, 48 h
MCF7 breast = test system: MCF7 breast
OVCAR-5 ovarian = test system: OVCAR-5 ovarian
SF-539 CNS = test system: SF-539 CNS
EKVX NSCLC = test system: EKVX NSCLC
SK-OV-3 ovarian = test system: SK-OV-3 ovarian
A498 renal = test system: A498 renal
MALME-3M melanoma = test system: MALME-3M melanoma
LOX IMVI melanoma = test system: LOX IMVI melanoma
IGROV1 ovarian = test system: IGROV1 ovarian
SF-268 CNS = test system: SF-268 CNS
RPMI-8226 leukemia = test system: RPMI-8226 leukemia
UACC-257 melanoma = test system: UACC-257 melanoma
SN12C renal = test system: SN12C renal
SNB-19 CNS = test system: SNB-19 CNS
SR leukemia = test system: SR leukemia
MOLT-4 leukemia = test system: MOLT-4 leukemia
UO-31 renal = test system: UO-31 renal
T-47D breast = test system: T-47D breast
PC-3 prostate = test system: PC-3 prostate
NCI-H226 lung = test system: NCI-H226 lung
MDA-MB-468 breast = test system: MDA-MB-468 breast
TK-10 renal = test system: TK-10 renal
M14 melanoma = test system: M14 melanoma
SK-MEL-2 melanoma = test system: SK-MEL-2 melanoma
DU-145 prostate = test system: DU-145 prostate
HCT-116 colon = test system: HCT-116 colon
HCT-15 colon = test system: HCT-15 colon
SF-295 CNS = test system: SF-295 CNS
MDA-MB-435 = test system: MDA-MB-435
OVCAR-4 ovarian = test system: OVCAR-4 ovarian
OVCAR-8 ovarian = test system: OVCAR-8 ovarian
HL-60(TB) leukemia = test system: HL-60(TB) leukemia
U251 CNS = test system: U251 CNS
COLO 205 colon = test system: COLO 205 colon
HOP-62 NSCLC = test system: HOP-62 NSCLC
MDA-MB-231 breast = test system: MDA-MB-231 breast
KM12 colon = test system: KM12 colon
K-562 leukemia = test system: K-562 leukemia
CCRF-CEM leukemia = test system: CCRF-CEM leukemia
HS 578T breast = test system: HS 578T breast
HOP-92 NSCLC = test system: HOP-92 NSCLC
SNB-75 CNS = test system: SNB-75 CNS
SK-MEL-28 melanoma = test system: SK-MEL-28 melanoma
BT-549 breast = test system: BT-549 breast
A549 NSCLC = test system: A549 NSCLC
NCI-H460 lung = test system: NCI-H460 lung
HT29 colon = test system: HT29 colon
786-0 renal = test system: 786-0 renal
RXF 393 renal = test system: RXF 393 renal
OVCAR-3 ovarian = test system: OVCAR-3 ovarian
NCI/ADR-RES ovarian = test system: NCI/ADR-RES ovarian
HCC-2998 colon = test system: HCC-2998 colon
ACHN renal = test system: ACHN renal
NCI-H522 lung = test system: NCI-H522 lung
SK-MEL-5 melanoma = test system: SK-MEL-5 melanoma
UACC-62 melanoma = test system: UACC-62 melanoma
SW-620 colon = test system: SW-620 colon
CAKI-1 renal = test system: CAKI-1 renal
NCI-H23 lung = test system: NCI-H23 lung

## Nc1nc(Nc2ccc(Cl)cc2)n(Cc2cccc(Br)c2)n1
MCF7 breast
  GI50: 25.1 µM
  TGI: > 100 µM
OVCAR-5 ovarian
  GI50: 22.3 µM
  TGI: 73.5 µM
SF-539 CNS
  GI50: 22.2 µM
  TGI: 62.1 µM
EKVX NSCLC
  GI50: 25.2 µM
  TGI: > 100 µM
SK-OV-3 ovarian
  GI50: 34.5 µM
  TGI: > 100 µM
A498 renal
  GI50: 26.7 µM
  TGI: 85.9 µM
MALME-3M melanoma
  GI50: 21.5 µM
  TGI: 71.2 µM
LOX IMVI melanoma
  GI50: 17.2 µM
  TGI: 35.9 µM
IGROV1 ovarian
  GI50: 30.7 µM
  TGI: > 100 µM
SF-268 CNS
  GI50: 27.9 µM
  TGI: > 100 µM
RPMI-8226 leukemia
  GI50: 31.6 µM
  TGI: > 100 µM
UACC-257 melanoma
  GI50: 33.6 µM
  TGI: > 100 µM
SN12C renal
  GI50: 26.2 µM
  TGI: > 100 µM
SNB-19 CNS
  GI50: 30.7 µM
  TGI: > 100 µM
SR leukemia
  GI50: 57.6 µM
  TGI: > 100 µM
MOLT-4 leukemia
  GI50: 25.6 µM
  TGI: > 100 µM
UO-31 renal
  GI50: 21 µM
  TGI: 90.4 µM
T-47D breast
  GI50: 30.5 µM
  TGI: > 100 µM
PC-3 prostate
  GI50: 29.8 µM
  TGI: > 100 µM
NCI-H226 lung
  GI50: 25.3 µM
  TGI: > 100 µM
MDA-MB-468 breast
  GI50: 16.8 µM
  TGI: 45.3 µM
TK-10 renal
  GI50: 40 µM
  TGI: > 100 µM
M14 melanoma
  GI50: 29.5 µM
  TGI: > 100 µM
SK-MEL-2 melanoma
  GI50: 18.9 µM
  TGI: 38.1 µM
DU-145 prostate
  GI50: 41.1 µM
  TGI: > 100 µM
HCT-116 colon
  GI50: 31.3 µM
  TGI: > 100 µM
HCT-15 colon
  GI50: 27 µM
  TGI: > 100 µM
SF-295 CNS
  GI50: 22.6 µM
  TGI: 74.9 µM
MDA-MB-435
  GI50: 19 µM
  TGI: 42.2 µM
OVCAR-4 ovarian
  GI50: 34 µM
  TGI: > 100 µM
OVCAR-8 ovarian
  GI50: 35.7 µM
  TGI: > 100 µM
HL-60(TB) leukemia
  GI50: 24.6 µM
  TGI: 71.8 µM
U251 CNS
  GI50: 31.3 µM
  TGI: > 100 µM
COLO 205 colon
  GI50: 37.4 µM
  TGI: > 100 µM
HOP-62 NSCLC
  GI50: 49 µM
  TGI: > 100 µM
MDA-MB-231 breast
  GI50: 30.5 µM
  TGI: > 100 µM
KM12 colon
  GI50: 33.3 µM
  TGI: > 100 µM
K-562 leukemia
  GI50: 28 µM
  TGI: > 100 µM
CCRF-CEM leukemia
  GI50: 36.8 µM
  TGI: > 100 µM
HS 578T breast
  GI50: 24.4 µM
  TGI: 96.3 µM
HOP-92 NSCLC
  GI50: 19.4 µM
  TGI: 63.8 µM
SNB-75 CNS
  GI50: 15.5 µM
  TGI: 60.6 µM
SK-MEL-28 melanoma
  GI50: 26 µM
  TGI: > 100 µM
BT-549 breast
  GI50: 38.8 µM
  TGI: 92 µM
A549 NSCLC
  GI50: 32.9 µM
  TGI: > 100 µM
NCI-H460 lung
  GI50: 23.7 µM
  TGI: 57.5 µM
HT29 colon
  GI50: 35.6 µM
  TGI: > 100 µM
786-0 renal
  GI50: 34.9 µM
  TGI: > 100 µM
RXF 393 renal
  GI50: 17 µM
  TGI: 60.5 µM
OVCAR-3 ovarian
  GI50: 33.8 µM
  TGI: > 100 µM
NCI/ADR-RES ovarian
  GI50: 20.2 µM
  TGI: 51.5 µM
HCC-2998 colon
  GI50: 27 µM
  TGI: > 100 µM
ACHN renal
  GI50: 29.3 µM
  TGI: > 100 µM
NCI-H522 lung
  GI50: 18.7 µM
  TGI: 44.5 µM
SK-MEL-5 melanoma
  GI50: 17.4 µM
  TGI: 33.5 µM
UACC-62 melanoma
  GI50: 18.3 µM
  TGI: 61.1 µM
SW-620 colon
  GI50: 32.8 µM
  TGI: > 100 µM
CAKI-1 renal
  GI50: 25.9 µM
  TGI: > 100 µM
NCI-H23 lung
  GI50: 29 µM
  TGI: > 100 µM
